# Test results: patent US10633542B2, “Azacyanine dyes and use thereof” (Ecole Polytechnique Fédérale de Lausanne (EPFL), priority 2018, dated 2020)
# Several values for one entry are separate records, joined by “and”; a condition that tells them apart may be missing. Equal values may be shown once.
# Tests used:
# necrotic tissue = test: Necrosis imaging in vivo after cardiotoxin injection; set-up: species or system mouse
# Experimental: Cardiotoxin (10 μM in 50 μL of PBS) was injected into the right thigh of the mouse and 50 μL of PBS was injected into the left thigh. 24 hours post-injection of toxin, Compound VIII ([…] in 100 μL PBS) was injected intravenously into the tail of the mouse. […] The results are shown below in FIG. 20-22. The brightnesses of the images are not on scale with one another. The quantification is shown on the same graph. Significant signal over-background ratios resulting from accumulation of the dye in necrosis areas observed as early as 10 min post-injection of the Compound VIII making it ideal for clinical translation.
# A431 cells = test: Cell uptake in live cells; format: cell-based; conditions: for Average values: average of wells; for Avg Radiant Efficiency: single wells
# Experimental: Therefore, we performed such experiments in live cells with Compound VIII compound. […] The following procedure was used:
# Cells were grown in 96 well plates to confluent level. Media was removed, cells washed with PBS, incubated for a set time (5, 15, or 30 minutes) at varying concentrations of the dye (5 μM, 10 μM, and 25 μM) in PBS. Dye was removed, cells washed twice with PBS, then PBS added for imaging.
# The values for each well were consistent with that of the control group of wells that were not exposed to the dye in wells A1-A3. The bright well at F12 is a solution of Compound VIII at 5 μM in PBS to insure imaging of the dye is occurring.
# [1] = Shortwave infrared / NIR-II imaging with SWIR camera system; format: physicochemical; conditions: commercial SWIR camera system
# Description: It was already shown that in the NIR-II region there is less absorption and […] enabling 2 times deeper imaging with much higher resolution respectively. […] The results are shown on FIG. 24. The camera used for obtaining the data has the following specs: “Princeton NIRvana detector, IsoPlane SCT320 spectrometer, Nikon inverted microscope, 658 nm, 785 nm and Xenon lamp/monochromator illumination sources” The other derivatives of aza-cyanine analogs covered in the current invention are currently being tested to find the optimal SWIR imaging dye.
# [2] = in methanol, calibration standard; cited from earlier work
# [3] = cited from earlier work
# [4] = tested on: sliced skin tissue of a nude mouse (dry-ice treated); test: Ex vivo cell death assay, cryogenic tissue damage; conditions: 1 uM, 5 uM, 10 uM, 10 min at room temperature
# Experimental: Ex vivo cell death assay for compounds, VI and XIV were studied using a method of cryogenic tissue damage. Briefly, a bar of a dry ice was applied to sliced skin tissue of a nude mouse recently sacrificed in a petri dish for a period of 60 sec. Subsequently, the skin tissue samples were incubated with different concentrations of dye VI and XIV (1 uM, 5 uM, and 10 uM) for 10 min at room temperature.
structure (smiles),measurement,setting,value
CN1C=CC=C2C1=N/C(=C\C=C1/C[N+](C)(C)CC(/C=C/C3=Nc4c(ccc[n+]4C)C3(C)C)=C1Cl)C2(C)C.I [Compound VIII],targeting of necrotic area in vivo,"necrotic tissue; cardiotoxin in right thigh, dye 40 μmoles in 100 μL PBS intravenously 24 hours later",selectively targets the necrotic area
same,clearance route,"necrotic tissue; mouse, intravenous",clears through the kidneys instead of accumulating in the liver
same,time post-injection at which significant signal over-background ratios are observed,"necrotic tissue; mouse, intravenous",10 min
same,Average values,"A431 cells; 5 μM, 5 minutes",1.49E+07 [p/s/cm^2/sr]/[μW/cm^2]
same,Avg Radiant Efficiency,"A431 cells; 5 μM, 5 minutes",1.64E+07 [p/s/cm^2/sr]/[μW/cm^2] and 1.47E+07 [p/s/cm^2/sr]/[μW/cm^2] and 1.36E+07 [p/s/cm^2/sr]/[μW/cm^2]
same,Average values,"A431 cells; 5 μM, 15 minutes",1.24E+07 [p/s/cm^2/sr]/[μW/cm^2]
same,Avg Radiant Efficiency,"A431 cells; 5 μM, 15 minutes",1.29E+07 [p/s/cm^2/sr]/[μW/cm^2] and 1.23E+07 [p/s/cm^2/sr]/[μW/cm^2] and 1.19E+07 [p/s/cm^2/sr]/[μW/cm^2]
same,Average values,"A431 cells; 5 μM, 30 minutes",1.17E+07 [p/s/cm^2/sr]/[μW/cm^2]
same,Avg Radiant Efficiency,"A431 cells; 5 μM, 30 minutes",1.18E+07 [p/s/cm^2/sr]/[μW/cm^2] and 1.16E+07 [p/s/cm^2/sr]/[μW/cm^2] and 1.17E+07 [p/s/cm^2/sr]/[μW/cm^2]
same,Average values,"A431 cells; 10 μM, 5 minutes",1.39E+07 [p/s/cm^2/sr]/[μW/cm^2]
same,Avg Radiant Efficiency,"A431 cells; 10 μM, 5 minutes",1.50E+07 [p/s/cm^2/sr]/[μW/cm^2] and 1.39E+07 [p/s/cm^2/sr]/[μW/cm^2] and 1.28E+07 [p/s/cm^2/sr]/[μW/cm^2]
same,Average values,"A431 cells; 10 μM, 15 minutes",1.20E+07 [p/s/cm^2/sr]/[μW/cm^2]
same,Avg Radiant Efficiency,"A431 cells; 10 μM, 15 minutes",1.24E+07 [p/s/cm^2/sr]/[μW/cm^2] and 1.18E+07 [p/s/cm^2/sr]/[μW/cm^2] and 1.17E+07 [p/s/cm^2/sr]/[μW/cm^2]
same,Average values,"A431 cells; 10 μM, 30 minutes",1.15E+07 [p/s/cm^2/sr]/[μW/cm^2]
same,Avg Radiant Efficiency,"A431 cells; 10 μM, 30 minutes",1.16E+07 [p/s/cm^2/sr]/[μW/cm^2] and 1.15E+07 [p/s/cm^2/sr]/[μW/cm^2] and 1.13E+07 [p/s/cm^2/sr]/[μW/cm^2]
same,Average values,"A431 cells; 25 μM, 5 minutes",1.33E+07 [p/s/cm^2/sr]/[μW/cm^2]
same,Avg Radiant Efficiency,"A431 cells; 25 μM, 5 minutes",1.39E+07 [p/s/cm^2/sr]/[μW/cm^2] and 1.34E+07 [p/s/cm^2/sr]/[μW/cm^2] and 1.27E+07 [p/s/cm^2/sr]/[μW/cm^2]
same,Average values,"A431 cells; 25 μM, 15 minutes",1.20E+07 [p/s/cm^2/sr]/[μW/cm^2]
same,Avg Radiant Efficiency,"A431 cells; 25 μM, 15 minutes",1.22E+07 [p/s/cm^2/sr]/[μW/cm^2] and 1.20E+07 [p/s/cm^2/sr]/[μW/cm^2] and 1.19E+07 [p/s/cm^2/sr]/[μW/cm^2]
same,Average values,"A431 cells; 25 μM, 30 minutes",1.20E+07 [p/s/cm^2/sr]/[μW/cm^2]
same,Avg Radiant Efficiency,"A431 cells; 25 μM, 30 minutes",1.20E+07 [p/s/cm^2/sr]/[μW/cm^2]
same,uptake in live A431 cells,"A431 cells; long incubation periods (30 min), high concentrations (25 uM)",No uptake
same,radiance of wells incubated with the dye compared to that of the control,"A431 cells; wells B1-C10, 5-25 μM, 5-30 minutes",no significant difference
same,absorption in the NIR-II region,[1],absorbs in the NIR-II region
"CC1(C)C(/C=C/C=C/C=C/C=C2\N(CCCCS(=O)(=O)O)c3ccc4ccccc4c3C2(C)C)=[N+](CCCCS(=O)(=O)[O-])c2ccc3ccccc3c21 [ICG, Indocyanine Green]",fluorescence quantum yield (QY),[2],7.8%
same,solubility in saline,[3],not readily soluble
CC1(C)C2=CC=CN(CCCCCC(=O)O)C2=N/C1=C/C=C1\C[N+](C)(C)CC(/C=C/C2=Nc3c(ccc[n+]3CCCCCC(=O)O)C2(C)C)=C1Cl [dye VI],fluorescence at the site of focal dry-ice treatment,[4],strong fluorescence signal
same,signal from the viable cells,[4],no signal
same,absorption in the NIR-II region,[1],absorbs in the NIR-II region
CC1(C)C2=CC=CN(CCCCCC(=O)O)C2=N/C1=C/C=C1\C[N+](C)(C)CC(/C=C/C2=Nc3c(ccc[n+]3CCCCCC(=O)O)C2(C)C)=C1Oc1ccc(S(=O)(=O)O)cc1.[Na+] [dye XIV],fluorescence at the site of focal dry-ice treatment,[4],strong accumulation of fluorescence
